Like-named read-outs stand apart in the source and are kept apart here.
Tests used:
[1] = Quenching of peptide tryptophan fluorescence by ferric ions (stoichiometry, apparent Kd); type: binding; settings: mean ± S.E.
Method in brief: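 Ferric ions titrated into peptide in 10 mM sodium acetate pH 4.0, 100 mM NaCl, 0.005% Tween 20; Trp fluorescence quenching read at ex 290/em 345 nm. Stoichiometry and apparent Kd from linear regression of Cs/fa = pCa + Kd/(1−fa); means ±S.E. of independent experiments.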

[2] = read-out: Kd for binding of ferric ions to Ggly; pH 4.0; taken from Baldwin et al. (2001); cited from earlier work
CCK-2 receptor [3] = biological target: T1, CCK-2 receptor (Homo sapiens, UniProt P32239); experiment: Gamide-stimulated inositol phosphate production in COS-7 cells transfected with the CCK-2 receptor; type: cell-based; design: COS-7 cells transiently transfected with CCK-2 receptor cDNA; expressed in transfected cells; host or cells: COS-7
T1 sequence (P32239 1-447): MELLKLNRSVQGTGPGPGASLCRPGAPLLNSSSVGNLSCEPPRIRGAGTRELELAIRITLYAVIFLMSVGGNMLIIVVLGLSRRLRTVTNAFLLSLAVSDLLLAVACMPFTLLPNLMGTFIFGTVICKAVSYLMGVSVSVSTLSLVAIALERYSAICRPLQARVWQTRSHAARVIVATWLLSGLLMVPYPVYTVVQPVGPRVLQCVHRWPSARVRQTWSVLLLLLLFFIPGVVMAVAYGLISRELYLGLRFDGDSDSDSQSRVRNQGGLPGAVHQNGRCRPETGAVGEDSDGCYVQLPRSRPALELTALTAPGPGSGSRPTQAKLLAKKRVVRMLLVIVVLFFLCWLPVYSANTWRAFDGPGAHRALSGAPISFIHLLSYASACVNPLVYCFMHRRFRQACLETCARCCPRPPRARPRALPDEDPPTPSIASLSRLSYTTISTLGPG
Description: Intracellular inositol phosphate production was determined as described previously (Qian et al, 1993). IMGE-5 cells (10^5 cells/ml) were plated in 24-multiwell culture plates in DMEM supplemented with 10% FBS, 200 IU/ml penicillin and 200 μg/ml streptomycin. 24 h later, cells were incubated with DMEM supplemented with antibiotics and Myo-[2-^3H]inositol (2.5 μCi/well) and shifted to 39° C. for 16 h. Cells were then washed with pre-warmed DMEM and incubated (20-30 minutes, 37° C.) with DMEM supplemented with 20 mM LiCl. Loaded cells were then washed in 1 ml of IP buffer (135 mM NaCl, 20 mM N-(2-hydroxyethyl)piperazine-N′-(2-ethanesulfonic acid), 2 mM CaCl2, 1.2 mM MgSO4, 1 mM ethylene glycol-bis(2-aminoethylether)-N,N,N′,N′-tetraacetic acid, 10 mM LiCl, and 0.5% bovine serum albumin, pH 7.45) and incubated with or without agonist in a final volume of 0.5 ml of IP buffer. After 1-h incubation at 37° C., the reaction was stopped by removing the incubation medium and adding 1 ml of a mixture of ethanol/HCl (2000:1; v/v). One ml of each aliquot was applied to a column containing 1.6 ml of a 1:2 (v/v) Dowex AG-1-X8 anion exchange resin in distilled water. The columns were washed with 4 ml of distilled water, followed by 4 ml of 40 mM HCOONH4, and inositol phosphates were eluted with 4 ml of 1 M HCOONH4. The radioactivity of each eluate was counted after addition of Complete phase combining system solution (Amersham, UK). For the positive control, IMGE-5 cells were incubated with a combination of 30 mM NaF and 10 μM AlCl3 under the same experimental conditions.
Gamide-stimulated inositol phosphate production was measured in COS-7 cells transfected with the CCK-2 receptor. […] Bismuth ions alone had no effect on inositol phosphate production in CCK-2 receptor-transfected COS-7 cells and HT29 cells, even at the highest concentration tested.
We then investigated the role of the individual glutamates in biological activity. The effects of the mutants GamideE7A and GamideE8,9A on inositol phosphate production in COS-7 cells transiently transfected with the CCK-2 receptor were compared.

CCK-2 receptor [4] = biological target: T1, CCK-2 receptor; experiment: [125I]-BH-CCK8 displacement, CCK-2 receptor on Jurkat cells; type: binding
Description: Non-specific binding was evaluated with […] of unlabelled CCK8. Incubation was stopped by adding 2 ml of ice-cold PBS containing 2% bovine serum albumin. After centrifugation, supernatants were removed and the radioactivity bound to the cell membranes was measured in a γ-counter (LKB, Wallac, Finland).

Ggly: glycine-extended gastrin17, 18 amino acid non-amidated gastrin, SEQ ID NO:4, residues 55-72 of progastrin (XGPWLEEEEEAYGWMDFG; (1)..(1) pyroglutamate; listed as Homo sapiens)
Kd ([1]; 10 mM sodium acetate pH 4.0, 100 mM NaCl, 0.005% Tween 20, read-out: Kd (μM), apparent dissociation constant for ferric ions): 0.18 ± 0.04 µM
Kd [2]: 600 nM

[Bi+3] [bismuth ions]
Effect on Gamide-induced inositol phosphate production (CCK-2 receptor [3]; 2, 8, and 32 moles Bi3+/mole Gamide, 10 nM Gamide): no significant effect
Effect of bismuth ions alone on inositol phosphate production (CCK-2 receptor [3]; CCK-2 receptor-transfected COS-7 cells, highest concentration tested): no effect

CSCC[C@H](NC(=O)[C@H](Cc1c[nH]c2ccccc12)NC(=O)CNC(=O)[C@H](Cc1ccc(O)cc1)NC(=O)[C@H](C)NC(=O)[C@H](CCC(=O)O)NC(=O)[C@H](CCC(=O)O)NC(=O)[C@H](CCC(=O)O)NC(=O)[C@H](CCC(=O)O)NC(=O)[C@H](CCC(=O)O)NC(=O)[C@H](CC(C)C)NC(=O)[C@H](Cc1c[nH]c2ccccc12)NC(=O)[C@@H]1CCCN1C(=O)CNC(=O)[C@@H]1CCC(=O)N1)C(=O)N[C@@H](CC(=O)O)C(=O)N[C@@H](Cc1ccccc1)C(N)=O [Gamide]
Kd ([1]; pH 4.0, read-out: Kd (μM) of ferric ion binding (amidated gastrin17 and related peptides)): 0.2 ± 0.14 µM
Kd ([1]; pH 4.0, model with two identical independent binding sites, read-out: Ferric Kd): 0.2 ± 0.1 µM
% Maximum Binding (Jurkat) (CCK-2 receptor [4]; binding in the absence of competitor, fitted, mean ± S.E.): 100.0 ± 3.1%
% Maximum Binding (Jurkat) (CCK-2 receptor [4]; presence and absence of 1 μM DFO): 99.0 ± 0.4%
Ordinate intercept, FIG. 24B (CCK-2 receptor [4]; single experiment, presence and absence of 1 μM DFO): 99.6%
Stimulation of inositol phosphate production (CCK-2 receptor [3]; 10 nM peptide): No significant difference was observed in the extent of stimulation
Increase in inositol phosphate production (CCK-2 receptor [3]; COS-7 cells transfected with the CCK-2 receptor, 10 μM AlF4−, 10 nM Gamide): 4 fold

Source: patent US20070031511A1, “Method of treatment” (priority 2003, published 2007)
